This is an account of results in patent US20260216294A1, “BETA 2-ADRENERGIC RECEPTOR AGONISTS FOR TREATMENT OR PREVENTION OF MUSCLE WASTING” (ATROGI AB, priority 2023, published 2026).

For assay [1], the system named is L6-myotubes. In words: Glucose uptake in differentiated L6-myotubes (Biological Example 2). The assay is classed as cell-based. The conditions noted are these: for Emax at 10 µM: read-out: Biological example 2 (GU). In a few lines: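 Differentiated L6 myotubes were serum-starved overnight in 0.5% fatty-acid-free BSA and then stimulated with compound or isoprenaline at 1×10^−5 M final. After 1 h 40 min cells were washed and re-dosed in glucose-free medium. Twenty minutes later, uptake of 50 nM ^3H-2-deoxyglucose over 10 min was measured by scintillation counting of NaOH lysates.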

In assay [2] the test system is L6-myotubes. The assay can be described thus: Measurement of intracellular cAMP levels in differentiated L6-myotubes (Biological Example 3). The assay is classed as cell-based. The conditions noted are these: for Emax at 10 µM: 0.25 h. The gist of the method: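 Serum-starved differentiated L6 myotubes stimulated 15 min with test compound at 1×10^−5 M final (isoprenaline as reference) in HBSS with 1% BSA, 5 mM HEPES, 1 mM IBMX, pH 7.4. Cells EtOH-extracted, lysed, and intracellular cAMP measured by AlphaScreen.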
(In general: Changes in cAMP serve as a functional read-out for many G protein-coupled receptors.)

The mark [3] stands for this setting: glucose uptake in differentiated L6-myotubes, compound at 10 μM, activity relative to isoproterenol at 10 μM.
Where [4] appears, read: intracellular cAMP in differentiated L6-myotubes, compound at 10 μM, activity relative to isoproterenol at 10 μM.
The mark [5] stands for this setting: glucose uptake, compound at 10 μM relative to isoproterenol at 10 μM.
[6] abbreviates: intracellular cAMP, compound at 10 μM relative to isoproterenol at 10 μM.

Regarding `CC(C)(C[C@H]1CC[C@H](NC(=O)OC(C)(C)C)CC1)NC[C@H](O)c1cccc(F)c1` [Compound 420, (1R,4r)-4-{2-[(R)-2-(m-fluorophenyl)-2-hydroxyethylamino]-2-methylpropyl}cyclohexy-2-methyl-2-propanecarbamate], the Emax at 10 µM with L6-myotubes [1] (setting [3]) lay in the range of 50 to 75%; with L6-myotubes [2] (setting [4]) it was 25 to 50%.

In the case of `O[C@@H](CNCCC[C@H]1CC[C@H](OCc2ccccc2)CC1)c1cccc(F)c1` [Compound 278, (R)-1-(m-fluorophenyl)-2-{3-[(1r,4S)-4-(benzyloxy)cyclohexyl]propylamino}-1-ethanol], the Emax at 10 µM in the assay with L6-myotubes [1] (setting [3]) was 25 to 50%; in the assay with L6-myotubes [2] (setting [4]), less than 25%.

Consider `CO[C@H]1CC[C@H](CCC23CCC([C@@H](O)c4cccc(F)c4)(CC2)N3)CC1` [Compound 410], for which the “Biological example 2 (GU)” value in the assay on L6-myotubes [1] (setting [3]) was “++ (if it is between 75 and 50% it is denoted with ++)”. In the assay with L6-myotubes [2] (setting [4]), the “Biological example 3 (CAMP)” value is given as “− (if it less than 25% it is denoted with −)”.

On to `COC(=O)[C@H]1CC[C@H](CCC(C)(C)NC[C@H](O)c2cncc(F)c2)CC1` [Compound 342, methyl (1R,4r)-4-{3-[(R)-2-(5-fluoro-3-pyridyl)-2-hydroxyethylamino]-3-methylbutyl} cyclohexanecarboxylate], for which the Emax at 10 µM in the assay on L6-myotubes [1] (setting [3]) is more than 75%; with L6-myotubes [2] (setting [4]), less than 25%.

As to `CC1(C)CCC[C@@H]([C@@H](O)c2ccccc2F)N1` [Compound 192, (S)-[(S)-6,6-dimethyl-2-piperidyl](o-fluorophenyl)methanol], the Emax at 10 µM in the assay on L6-myotubes [1] (setting [5]) was 25 to 50%; with L6-myotubes [2] (setting [6]) it was less than 25%.

Take `CC(C)(C[C@H]1CC[C@H](NS(=O)(=O)C2CC2)CC1)NC[C@H](O)c1cccc(F)c1` [Compound 496]: the figures for the Emax at 10 µM with L6-myotubes [1] (setting [3]) and in the assay with L6-myotubes [2] (setting [4]) were 50 to 75% and less than 25%, respectively.

Turning to `CC(C)(C[C@H]1CC[C@@H](NS(C)(=O)=O)CC1)NC[C@H](O)c1cncc(F)c1` [Compound 468, (R)-2-{1,1-dimethyl-2-[(1s,4S)-4-(mesylamino)cyclohexyl]ethylamino}-1-(5-fluoro-3-pyridyl)-1-ethanol], the results for the Emax at 10 µM with L6-myotubes [1] (setting [3]) and with L6-myotubes [2] (setting [4]) were more than 75% and less than 25%, respectively.

For `CC1(C)C[C@@H]([C@@H](O)c2cccc(F)c2)N1` [Compound 199], the Emax at 10 µM in the assay with L6-myotubes [1] (setting [3]) was 25 to 50%; in the assay on L6-myotubes [2] (setting [4]), less than 25%.

As for `CCC[C@H]1CCC[C@H]([C@@H](O)c2cccc(F)c2)N1` [Compound 70], the Emax at 10 µM is 50 to 75% in the assay with L6-myotubes [1] (setting [5]) and less than 25% in the assay with L6-myotubes [2] (setting [6]).

On to `O[C@@H](CNCC[C@H]1CC[C@@H](O)CC1)c1cncc(F)c1` [Compound 293, (R)-1-(5-fluoro-3-pyridyl)-2-{2-[(1s,4S)-4-hydroxycyclohexyl]ethylamino}-1-ethanol], for which the figures for the Emax at 10 µM in the assay on L6-myotubes [1] (setting [3]) and in the assay on L6-myotubes [2] (setting [4]) were 25 to 50% and less than 25%, respectively.

As for `CC(C)(C[C@H]1CC[C@H](NS(=O)(=O)C(F)(F)F)CC1)NC[C@H](O)c1cccc(F)c1` [Compound 458], the values for the Emax at 10 µM in the assay with L6-myotubes [1] (setting [3]) and with L6-myotubes [2] (setting [4]) were more than 75% and less than 25%, respectively.

Regarding `CC(=O)N(Cc1ccccc1)[C@H]1CC[C@@H](C[C@@H]2CC[C@H]([C@@H](O)c3cccc(F)c3)N2)CC1` [Compound 479, N-[(1R,4s)-4-({(2S,5R)-5-[(S)-(m-fluorophenyl) hydroxymethyl]-2-pyrrolidinyl}methyl)cyclohexyl]-N-benzylacetamide], the Emax at 10 µM with L6-myotubes [1] (setting [3]) and in the assay on L6-myotubes [2] (setting [4]) was less than 25% in each case.

As to `CC(C)(C[C@H]1CC[C@@H](NC(=O)C2CC2)CC1)NC[C@H](O)c1cccc(F)c1` [Compound 447], the figures for the Emax at 10 µM in the assay with L6-myotubes [1] (setting [3]) and in the assay on L6-myotubes [2] (setting [4]) were more than 75% and less than 25%, respectively.

As for `CC(C)(C[C@H]1CC[C@@H](NC(=O)OC(C)(C)C)CC1)NC[C@H](O)c1cccc(C#N)n1` [Compound 414, (1R,4s)-4-{2-[(S)-2-(6-cyano-2-pyridyl)-2-hydroxyethylamino]-2-methylpropyl}cyclohexly 2-methyl-2-propanecarbamate], the Emax at 10 µM with L6-myotubes [1] (setting [3]) is 50 to 75%; in the assay on L6-myotubes [2] (setting [4]), less than 25%.

In the case of `CC1(C)C[C@H]([C@H](O)c2cccc(Cl)c2)N1` [Compound 230], the figures for the Emax at 10 µM in the assay with L6-myotubes [1] (setting [3]) and in the assay with L6-myotubes [2] (setting [4]) were more than 75% and less than 25%, respectively.

For the molecule `CC(C)(C)NC[C@H](O)c1ccc(F)c(O)c1` [Compound 84, (R)-2-(tert-butylamino)-1-(4-fluoro-3-hydroxyphenyl)-1-ethanol], the Emax at 10 µM was more than 75% in the assay on L6-myotubes [1] (setting [5]) and 50 to 75% with L6-myotubes [2] (setting [6]).

As for `CS(=O)(=O)N(Cc1ccccc1)c1ccc(CC23CCC([C@@H](O)c4cccc(F)c4)(CC2)N3)cc1` [Compound 472, (S)-[4-({p-[(benzyl)-N-mesylamino]phenyl}methyl)-7-azabicyclo[[2.2.1]]hept-1-yl](m-fluorophenyl)methanol], the Emax at 10 µM was 25 to 50% in the assay with L6-myotubes [1] (setting [3]) and less than 25% in the assay on L6-myotubes [2] (setting [4]).

In the case of `O[C@@H](CNCC[C@H]1CC[C@H](O)CC1)c1cncc(F)c1` [Compound 294, (R)-1-(5-fluoro-3-pyridyl)-2-{2-[(1r,4R)-4-hydroxycyclohexyl]ethylamino}-1-ethanol], the Emax at 10 µM with L6-myotubes [1] (setting [3]) is 25 to 50%; in the assay on L6-myotubes [2] (setting [4]), less than 25%.

`CCS(=O)(=O)N[C@H]1CC[C@H](CC(C)(C)NC[C@H](O)c2cncc(F)c2)CC1` [Compound 525, (R)-2-{1,1-dimethyl-2-[(1r,4R)-4-(ethylsulfonylamino)cyclohexyl]ethylamino}-1-(5-fluoro-3-pyridyl)-1-ethanol]: the Emax at 10 µM is 50 to 75% in the assay with L6-myotubes [1] (setting [3]) and less than 25% in the assay with L6-myotubes [2] (setting [4]).

Take `CCCCNCC(O)c1ccc(F)c(N)c1F` (centres unmarked) [Compound 43, 1-(3-amino-2,4-difluorophenyl)-2-(butylamino)-1-ethanol]: the Emax at 10 µM with L6-myotubes [1] (setting [5]) was more than 75%; in the assay on L6-myotubes [2] (setting [6]), less than 25%.

For the molecule `CCCCNC[C@H](O)c1ccc(F)cc1` [Compound 46, (R)-2-(butylamino)-1-(p-fluorophenyl)-1-ethanol], the Emax at 10 µM was 50 to 75% in the assay on L6-myotubes [1] (setting [5]) and less than 25% in the assay with L6-myotubes [2] (setting [6]).

Take `CCC[C@@H]1CCC[C@H]([C@@H](O)c2cccc(F)c2)N1` [Compound 60]: the Emax at 10 µM in the assay with L6-myotubes [1] (setting [5]) is 25 to 50%; with L6-myotubes [2] (setting [6]), less than 25%.

Take `CCC[C@@H]1CC[C@H]([C@H](O)c2cncc(F)c2)N1` [Compound 161]: the “Biological example 2 (GU)” value in the assay on L6-myotubes [1] (setting [5]) was “+ (if it is between 50 and 25% it is denoted with +)”. For the same molecule, in the assay on L6-myotubes [2] (setting [6]), the “Biological example 3 (CAMP)” value was “− (if it less than 25% it is denoted with −)”.

On to `CC1(C)C[C@H]([C@H](O)c2cccc(F)c2)N1` [Compound 198, (R)-[(R)-4,4-dimethyl-2-azetidinyl](m-fluorophenyl)methanol], for which the Emax at 10 µM was more than 75% with L6-myotubes [1] (setting [3]) and less than 25% in the assay with L6-myotubes [2] (setting [4]).

Regarding `O[C@@H](c1cncc(F)c1)[C@H]1CC[C@H](Cc2ccc(Cl)cc2)N1` [Compound 405, (S)-{(2R,5R)-5-[(p-chlorophenyl)methyl]-2-pyrrolidinyl}(5-fluoro-3-pyridyl)methanol], the Emax at 10 µM with L6-myotubes [1] (setting [3]) is more than 75%; with L6-myotubes [2] (setting [4]), less than 25%.

Regarding `CC12CC(C1)[C@@H]([C@@H](O)c1ccccc1F)N2` [Compound 211, (S)-{(S)-1-methyl-2-azabicyclo[[2.1.1]]hex-3-yl}(o-fluorophenyl)methanol], the results for the Emax at 10 µM in the assay with L6-myotubes [1] (setting [3]) and in the assay with L6-myotubes [2] (setting [4]) were more than 75% and less than 25%, respectively.

In the case of `CC1(C)CC[C@H]([C@@H](O)c2cc(F)c(N)c(F)c2)N1` [Compound 236], the figures for the Emax at 10 µM in the assay with L6-myotubes [1] (setting [3]) and in the assay with L6-myotubes [2] (setting [4]) were more than 75% and 25 to 50%, respectively.

Consider `CC(C)(NC[C@H](O)c1cccc(F)c1)[C@H]1CC[C@@H](OCC(=O)O)CC1` [Compound 408], for which the Emax at 10 µM was 50 to 75% in the assay on L6-myotubes [1] (setting [3]) and less than 25% with L6-myotubes [2] (setting [4]).

Regarding `CC12CC(C1)[C@H]([C@@H](O)c1cccc(F)c1)N2` [Compound 187], the Emax at 10 µM in the assay on L6-myotubes [1] (setting [5]) is 25 to 50%; in the assay with L6-myotubes [2] (setting [6]), less than 25%.

With `O[C@@H](CNC[C@H]1CC[C@H](O)CC1)c1cccc(F)c1` [Compound 272, (R)-1-(m-fluorophenyl)-2-({[(1r,4R)-4-hydroxycyclohexyl]methyl}amino)-1-ethanol], the Emax at 10 µM with L6-myotubes [1] (setting [3]) is 25 to 50%; with L6-myotubes [2] (setting [4]) it was less than 25%.

Turning to `CC(=O)N[C@H]1CC[C@H](CC(C)(C)NC[C@H](O)c2cccc(F)c2)CC1` [Compound 383], the Emax at 10 µM is more than 75% in the assay with L6-myotubes [1] (setting [3]) and 25 to 50% in the assay with L6-myotubes [2] (setting [4]).

On to `O[C@H](c1cccc(F)c1)[C@H]1CCC2(CC2)N1` [Compound 170, (R)-{(R)-4-aza-5-spiro[2.4]heptyl}(m-fluorophenyl)methanol], for which the Emax at 10 µM in the assay on L6-myotubes [1] (setting [5]) is 50 to 75%; in the assay with L6-myotubes [2] (setting [6]), less than 25%.

`Oc1ccc(C(O)CNCCCC2CCCCC2)cc1` (centres unmarked) [Compound 21, 2-(3-cyclohexylpropylamino)-1-(p-hydroxyphenyl)-1-ethanol]: the Emax at 10 µM in the assay on L6-myotubes [1] (setting [5]) is more than 75%; in the assay on L6-myotubes [2] (setting [6]), less than 25%.

Regarding `CC(=O)N(Cc1ccccc1)[C@H]1CC[C@H](C[C@@H]2CC[C@H]([C@@H](O)c3cccc(F)c3)N2)CC1` [Compound 481, N-[(1S,4r)-4-({(2S,5R)-5-[(S)-(m-fluorophenyl) hydroxymethyl]-2-pyrrolidinyl}methyl)cyclohexyl]-N-benzylacetamide], the Emax at 10 µM with L6-myotubes [1] (setting [3]) and in the assay on L6-myotubes [2] (setting [4]) was less than 25% in each case.
